# Measurements published in patent publication US7398161B2, “Sampling method and sampling device, and logD measuring method and logD measuring system” (Banyu Pharmaceutical Co., Ltd., priority 2004, dated 2008).
# Assays:
# [1] = logD measurement by sampling of octanol/buffer two-layer sample with plug liquid, HPLC and mass spectrometer; details: octanol/buffer solution
# [2] = J. Med. Chem. 2001, 44, 2490-2497; cited from earlier work
logD (physchem),logD [1],SMILES,"logD, Measured value ([1]; average of three measurements (only one measurement for amiodarone))","logD, Literature value [2]"
–,–,C[C@@H]1C[C@H]2[C@@H]3CCC4=CC(=O)C=C[C@]4(C)[C@@]3(F)[C@@H](O)C[C@]2(C)[C@@]1(O)C(=O)CO [Dexamethason],1.9,1.83
3.9,–,C[C@]12CC[C@@H]3c4ccc(O)cc4CC[C@H]3[C@@H]1CC[C@@H]2O [estradiol],–,–
5.2,–,c1ccc(-c2ccc(C(c3ccccc3)n3ccnc3)cc2)cc1 (stereo not drawn) [bifonazole],–,4.77
–,1.2,C=CCc1ccccc1OCC(O)CNC(C)C (stereo not drawn) [Alprenolol],–,0.97
1.8,–,NC(=O)N1c2ccccc2C=Cc2ccccc21 [Carbamazepine],–,2.19
2.3,–,COc1ccc([C@@H]2Sc3ccccc3N(CCN(C)C)C(=O)[C@@H]2OC(C)=O)cc1 [Diltiazem],–,2.06
–,-1.9,CC(C)(C)NCC(O)c1cc(O)cc(O)c1 (stereo not drawn) [Terbutaline],–,−1.35
3.5,–,CN(C)CCCN1c2ccccc2Sc2ccc(Cl)cc21 [Chlorpromazine],–,–
0.3,–,COCCc1ccc(OCC(O)CNC(C)C)cc1 (stereo not drawn) [Metoprolol],–,–
